Target: T1, CV-IIL (Chromobacterium violaceum, UniProt Q7NX84)
T1 construct: gene CV_1744
Assay type: binding

T1 sequence (Q7NX84 2-114 limits assumed): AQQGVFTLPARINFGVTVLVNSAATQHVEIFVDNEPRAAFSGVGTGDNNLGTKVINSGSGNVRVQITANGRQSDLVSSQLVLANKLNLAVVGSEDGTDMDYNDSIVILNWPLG

SMILES	Kd
C[C@@H]1OC(O)[C@@H](O)[C@H](O)[C@@H]1O (stereo partly drawn) [L-fucose]	8.2 µM
OC[C@H]1OC(O)[C@@H](O)[C@@H](O)[C@@H]1O (stereo partly drawn) [D-mannose]	25.6 µM
